Test results published in patent US10807982B2, “Bromodomain inhibitors” (CELGENE QUANTICEL RESEARCH, INC., priority 2015, dated 2020).
Where a name gives a salt, the structure may show the parent alone.

Assays:
[1] = system: Raji, human Burkitts lymphoma cells; assay: Cell-MTS cellular proliferation assay, Raji; assay type: cell-based; conditions: Homo sapiens, 168 hr incubation
In short: (§1)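 Cells seeded to reach ~90% confluence at 7 days (Raji 15,000, HL-60 5,000, NCI-H460 3,000 per well); 11-point compound dilution, 100 µM to 2.0 nM final, added 24 h after plating. Exposure 168 hr at 37 °C, 5% CO2; MTS read at OD490. IC50 from background-subtracted OD490 normalized to DMSO controls.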

[2] = system: HL-60, human proleukemia cells; assay: Cell-MTS cellular proliferation assay, HL-60; assay type: cell-based; conditions: Homo sapiens, HL-60 cells, 168 hr incubation
In short: as §1

[3] = system: NCI-H460, human non-small cell lung cancer cells; assay: Cell-MTS cellular proliferation assay, NCI-H460; assay type: cell-based; conditions: Homo sapiens, 168 hr incubation
In short: as §1

BRD4(BD1) = BRD4(BD1) (Homo sapiens (Human), UniProt O60885); assay: In vitro enzyme inhibition assay (BRD4 AlphaScreen, H4-tetraacetyl peptide); assay type: binding; conditions: BRD4(BD1) 2 nM, peptide 15 nM
In short: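 His-tagged BRD4(BD1), 2 nM, with 15 nM biotinylated H4K5/8/12/16(Ac) peptide in HEPES pH 7.3 buffer, 0.4% DMSO, 20 min RT with compound. Streptavidin donor and Ni-chelate acceptor beads (5 μg/mL) then equilibrated 2 h. AlphaScreen signal; IC50 by four-parameter fit.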

SMILES	IC50 [1] [µM]	IC50 [2] [µM]	IC50 [3] [µM]	IC50 (BRD4(BD1)) [µM]
CCS(=O)(=O)c1cc(-c2cc(OC)c(=O)n(C)c2)cc2c1nc(C)n2Cc1ccccc1 [Example 68, 5-(3-benzyl-7-ethylsulfonyl-2-methylbenzimidazol-5-yl)-3-methoxy-1-methylpyridin-2-one]	0.5 to 5	0.5 to 5	> 5	≤ 0.5
Cn1cc(-c2cc(NS(C)(=O)=O)cc3cc(C4CC4)oc23)c2ccccc2c1=O [Example 79, N-[2-cyclopropyl-7-(2-methyl-1-oxoisoquinolin-4-yl)-1-benzofuran-5-yl]methanesulfonamide]	≤ 0.5	≤ 0.5	≤ 0.5	≤ 0.5
Cc1cc(-c2cc(NS(C)(=O)=O)cc3cc(C4CC4)oc23)cn(C)c1=O [Example 80, N-[2-cyclopropyl-7-(1,5-dimethyl-6-oxopyridin-3-yl)-1-benzofuran-5-yl]methanesulfonamide]	≤ 0.5	≤ 0.5	0.5 to 5	≤ 0.5
CCS(=O)(=O)Nc1cc(-c2cn(C)c(=O)c3ccccc23)c2oc(C3CC3)cc2c1 [Example 82, N-[2-cyclopropyl-7-(2-methyl-1-oxoisoquinolin-4-yl)-1-benzofuran-5-yl]ethanesulfonamide]	≤ 0.5	≤ 0.5	≤ 0.5	≤ 0.5
Cc1cc(-c2cc(NS(C)(=O)=O)cc3cc(-c4ccccc4)oc23)cn(C)c1=O [Example 83, N-[7-(1,5-dimethyl-6-oxopyridin-3-yl)-2-phenyl-1-benzofuran-5-yl]methane-sulfonamide]	0.5 to 5	0.5 to 5	0.5 to 5	≤ 0.5
Cn1cc(-c2cc(NS(C)(=O)=O)cc3cc(-c4ccccc4)oc23)c2ccccc2c1=O [Example 84, N-[7-(2-methyl-1-oxoisoquinolin-4-yl)-2-phenyl-1-benzofuran-5-yl]methanesulfonamide]	≤ 0.5	≤ 0.5	≤ 0.5	≤ 0.5
Cc1cc(-c2cc(S(C)(=O)=O)ccc2OCC2CC2)c2n(c1=O)CCC2 [Example 85, 8-[2-(cyclopropylmethoxy)-5-methylsulfonylphenyl]-6-methyl-2,3-dihydro-1H-indolizin-5-one]	0.5 to 5	≤ 0.5	> 5	≤ 0.5
Cc1cc(-c2cc(NS(C)(=O)=O)ccc2Oc2ccc(F)cc2F)c2n(c1=O)CCC2 [Example 86, N-[4-(2,4-difluorophenoxy)-3-(6-methyl-5-oxo-2,3-dihydro-1H-indolizin-8-yl)phenyl]methanesulfonamide]	≤ 0.5	≤ 0.5	> 5	≤ 0.5
Cc1cc(-c2cc(S(C)(=O)=O)ccc2OCC2CC2)c2n(c1=O)CC(C)(C)C2 [Example 87, 8-[2-(cyclopropylmethoxy)-5-methylsulfonylphenyl]-2,2,6-trimethyl-1,3-dihydroindolizin-5-one]	≤ 0.5	≤ 0.5	> 5	≤ 0.5
Cc1cc(-c2cc(NS(C)(=O)=O)ccc2Oc2ccc(F)cc2F)c2n(c1=O)CC(C)(C)C2 [Example 88, N-[4-(2,4-difluorophenoxy)-3-(2,2,6-trimethyl-5-oxo-1,3-dihydroindolizin-8-yl)phenyl]methanesulfonamide]	≤ 0.5	≤ 0.5	> 5	≤ 0.5
COc1cc(-c2cc3c(S(C)(=O)=O)cccc3n2CCC2CC2)cn(C)c1=O [Example 91, 5-[1-(2-cyclopropylethyl)-4-methylsulfonylindol-2-yl]-3-methoxy-1-methylpyridin-2-one]	≤ 0.5	≤ 0.5	> 5	≤ 0.5
COc1cc(-c2cc(NS(C)(=O)=O)c3nc(C(F)(F)F)n(CC4CC4)c3c2)cn(C)c1=O [Example 93, N-[1-(cyclopropylmethyl)-6-(5-methoxy-1-methyl-6-oxopyridin-3-yl)-2-(trifluoromethyl)benzimidazol-4-yl]methanesulfonamide]	≤ 0.5	≤ 0.5	> 5	≤ 0.5
CCCCn1c(C)nc2c(NS(C)(=O)=O)cc(-c3cc(OC)c(=O)n(C)c3)cc21 [Example 95, N-[1-butyl-6-(5-methoxy-1-methyl-6-oxopyridin-3-yl)-2-methylbenzimidazol-4-yl]methanesulfonamide hydrochloride]	≤ 0.5	≤ 0.5	> 5	≤ 0.5
CCS(=O)(=O)Cc1cc(-c2cc(OC)c(=O)n(C)c2)c2oc(C3CC3)nc2c1 [Example 100, 5-[2-cyclopropyl-5-(ethylsulfonylmethyl)-1,3-benzoxazol-7-yl]-3-methoxy-1-methylpyridin-2-one]	≤ 0.5	≤ 0.5	> 5	≤ 0.5
Cc1cc(-c2cc(NS(C)(=O)=O)c3oc(=O)n(Cc4ccc(F)cc4)c3c2)cn(C)c1=O [Example 102, N-[5-(1,5-dimethyl-6-oxopyridin-3-yl)-3-[(4-fluorophenyl)methyl]-2-oxo-1,3-benzoxazol-7-yl]methanesulfonamide]	≤ 0.5	≤ 0.5	> 5	≤ 0.5

The remaining lines, values ahead:

IC50 [1] [µM]	IC50 [2] [µM]	IC50 [3] [µM]	IC50 (BRD4(BD1)) [µM]	SMILES
≤ 0.5	≤ 0.5	> 5	≤ 0.5	Cc1cc(-c2cc(NS(C)(=O)=O)c3c(F)nn(CC4CC4)c3c2)cn(C)c1=O [Example 66, N-[1-(cyclopropylmethyl)-6-(1,5-dimethyl-6-oxopyridin-3-yl)-3-fluoroindazol-4-yl]methanesulfonamide]
≤ 0.5	≤ 0.5	> 5	≤ 0.5	Cc1cc(-c2cc(S(C)(=O)=O)c3nc(C)n(Cc4ccccc4)c3c2)cn(C)c1=O [Example 67, 5-(3-benzyl-2-methyl-7-methylsulfonylbenzimidazol-5-yl)-1,3-dimethylpyridin-2-one]
> 5	0.5 to 5	> 5	≤ 0.5	Cc1cc(-c2cc(S(C)(=O)=O)c3nc(C)n(CC4CC4)c3c2)cn(C)c1=O [Example 71, 5-[3-(cyclopropylmethyl)-2-methyl-7-methylsulfonylbenzimidazol-5-yl]-1,3-dimethylpyridin-2-one]
≤ 0.5	≤ 0.5	0.5 to 5	≤ 0.5	CCOc1nc2c(NS(C)(=O)=O)cc(-c3cc(C)c(=O)n(C)c3)cc2n1CC1CC1 [Example 72, N-[1-(cyclopropylmethyl)-6-(1,5-dimethyl-6-oxopyridin-3-yl)-2-ethoxybenzimidazol-4-yl]methanesulfonamide]
≤ 0.5	≤ 0.5	0.5 to 5	≤ 0.5	COc1nc2c(NS(C)(=O)=O)cc(-c3cc(C)c(=O)n(C)c3)cc2n1CC1CC1 [Example 73, N-[1-(cyclopropylmethyl)-6-(1,5-dimethyl-6-oxopyridin-3-yl)-2-methoxybenzimidazol-4-yl]methanesulfonamide]
≤ 0.5	≤ 0.5	0.5 to 5	≤ 0.5	Cc1cc(-c2cc(NS(C)(=O)=O)c3nc(C(F)(F)F)n(CC4CC4)c3c2)cn(C)c1=O [Example 92, N-[1-(cyclopropylmethyl)-6-(1,5-dimethyl-6-oxopyridin-3-yl)-2-(trifluoromethyl)benzimidazol-4-yl]methanesulfonamide]
≤ 0.5	≤ 0.5	> 5	≤ 0.5	CCCCn1c(C)nc2c(NS(C)(=O)=O)cc(-c3cc(C)c(=O)n(C)c3)cc21 [Example 94, N-[1-butyl-6-(1,5-dimethyl-6-oxopyridin-3-yl)-2-methylbenzimidazol-4-yl]methanesulfonamide hydrochloride]
≤ 0.5	≤ 0.5	> 5	≤ 0.5	Cc1cc(-c2cc(CS(C)(=O)=O)c3nc(C)n(CC4CC4)c3c2)cn(C)c1=O [Example 96, 5-[3-(cyclopropylmethyl)-2-methyl-7-(methylsulfonylmethyl)benzimidazol-5-yl]-1,3-dimethylpyridin-2-one]
≤ 0.5	≤ 0.5	> 5	≤ 0.5	CCOc1nc2c(CS(C)(=O)=O)cc(-c3cc(C)c(=O)n(C)c3)cc2n1CC1CC1 [Example 97, 5-[3-(cyclopropylmethyl)-2-ethoxy-7-(methylsulfonylmethyl)benzimidazol-5-yl]-1,3-dimethylpyridin-2-one]
≤ 0.5	≤ 0.5	> 5	≤ 0.5	CCOc1nc2c(CS(C)(=O)=O)cc(-c3cc(OC)c(=O)n(C)c3)cc2n1CC1CC1 [Example 98, 5-[3-(cyclopropylmethyl)-2-ethoxy-7-(methylsulfonylmethyl)benzimidazol-5-yl]-3-methoxy-1-methylpyridin-2-one]
≤ 0.5	≤ 0.5	> 5	≤ 0.5	COc1nc2c(CS(C)(=O)=O)cc(-c3cc(C)c(=O)n(C)c3)cc2n1CC1CC1 [Example 99, 5-[3-(cyclopropylmethyl)-2-methoxy-7-(methylsulfonylmethyl)benzimidazol-5-yl]-1,3-dimethylpyridin-2-one]
0.5 to 5	0.5 to 5	> 5	≤ 0.5	Cc1cc(-c2cc(NS(C)(=O)=O)c3oc(=O)n(CC4CC4)c3c2)cn(C)c1=O [Example 101, N-[3-(cyclopropylmethyl)-5-(1,5-dimethyl-6-oxopyridin-3-yl)-2-oxo-1,3-benzoxazol-7-yl]methanesulfonamide]
